Data from PMC6214108, “Synthesis and In Vitro Antitumor Activity of Novel Bivalent β-Carboline-3-carboxylic Acid Derivatives with DNA as a Potential Target” (International Journal of Molecular Sciences, 2018).

Assays:
Type in all cases: cell-based
[1] = system: A549 (lung carcinoma) cell line; assay: MTT cytotoxicity assay, A549; conditions: Homo sapiens, 48 h, mean of three independent experiments, read-out: IC50 (μM) Mean ± SD, A549
Method: (§1) All cell lines (A549, SGC-7901, Hela, SMMC-7721, and MCF-7) were purchased from the American Type Culture Collection (Manassas, VA, USA), and were cultured in Dulbecco’s modified Eagle’s medium (DMEM, HycloneLaboratories Inc., Logan, Utah, USA) supplemented with 10% fetal bovine serum (FBS, Gibco&Invitrogen, Carlsbad, CA, USA) at 37 °C and 5% CO2.
(§2) The cytotoxic activities of β-carboline-3-carboxylic acid derivatives were investigated by the MTT method, as previously described. Cells (1 × 10^4 cells per well) seeded into 96-well plates (JET, Guangzhou, China) were incubated with DMEM containing various concentrations (2.5, 5, 10, 20, 40, and 80 μM) of β-carbolines (4A, 4B, 4C, 4D, 6a-6f, 6g-6l, 6m-6r, and 6s-6x) for 48 h at 37 °C and 5% CO2. Then, 10 µL of 5 mg/mL MTT reagent dissolved in PBS (Phosphate buffered saline) was added per well, and plates were incubated at 37 °C for 4 h. The medium was carefully removed and 100 µL dimethyl sulfoxide (DMSO) was added to dissolve the formazan crystals. The absorbance was measured at 490 nm with a microplate reader (ThermoFisher Scientific Inc., Waltham, MA, USA). The β-carbolines were dissolved in DMSO as stock solutions (10 mM) at −20 °C, and diluted in the final experimental solution using DMEM before use. A549 (lung carcinoma), SGC-7901 (gastric carcinoma), Hela (cervical carcinoma), SMMC-7721 (liver carcinoma), and MCF-7 (breast carcinoma) cell lines were used for the antitumor activity screening. The IC50 values were the mean values of three independent experiments.

[2] = system: SGC-7901 (gastric carcinoma) cell line; assay: MTT cytotoxicity assay, SGC-7901; conditions: Homo sapiens, 48 h, mean of three independent experiments, read-out: IC50 (μM) Mean ± SD, SGC-7901
Method: as §1, §2

[3] = system: Hela (cervical carcinoma) cell line; assay: MTT cytotoxicity assay, Hela; conditions: Homo sapiens, 48 h, mean of three independent experiments, read-out: IC50 (μM) Mean ± SD, Hela
Method: as §1, §2

[4] = system: SMMC-7721 (liver carcinoma) cell line; assay: MTT cytotoxicity assay, SMMC-7721; conditions: Homo sapiens, 48 h, mean of three independent experiments, read-out: IC50 (μM) Mean ± SD, SMMC-7721
Method: as §1, §2

[5] = system: MCF-7 (breast carcinoma) cell line; assay: MTT cytotoxicity assay, MCF-7; conditions: Homo sapiens, MCF7, 48 h, mean of three independent experiments, read-out: IC50 (μM) Mean ± SD, MCF-7
Method: as §1, §2

[6] = system: MRC5 (normal lung cell) cell line; assay: MTT cytotoxicity assay, MRC5; conditions: Homo sapiens, 48 h
Method: [The procedure below names another cell line; the source lists this cell line under the same test.] as §2

Row | SMILES | IC50 [1] [µM] | IC50 [2] [µM] | IC50 [3] [µM] | IC50 [4] [µM] | IC50 [5] [µM] | IC50 [6] [µM]
1 | Cc1ccccc1Cn1c2ccccc2c2cc(C(=O)OCCCCCCOC(=O)c3cc4c5ccccc5n(Cc5ccccc5C)c4cn3)ncc21 [Compound 6j] | 12.18 ± 0.06 | 26.3 ± 1.03 | 18.1 ± 1.03 | 16.68 ± 0.03 | 64.5 ± 3.31 | 41 ± 0.07
2 | Cc1ccc(Cn2c3ccccc3c3cc(C(=O)OCCCCOC(=O)c4cc5c6ccccc6n(Cc6ccc(C)cc6)c5cn4)ncc32)cc1 [Compound 6n] | 13.4 ± 0.35 | 37.8 ± 1.02 | 28 ± 0.99 | 42.7 ± 2.18 | 49.1 ± 2.23 | 26.39 ± 0.01
3 | O=C(OCCCOC(=O)c1cc2c3ccccc3n(Cc3ccccc3)c2cn1)c1cc2c3ccccc3n(Cc3ccccc3)c2cn1 [Compound 6a] | 24.27 ± 0.12 | 17.76 ± 0.17 | 17.89 ± 0.03 | 25.7 ± 0.32 | 73.5 ± 0.88 | 32.57 ± 0.1
4 | O=C(OCCCCCOC(=O)c1cc2c3ccccc3n(Cc3ccccc3)c2cn1)c1cc2c3ccccc3n(Cc3ccccc3)c2cn1 [Compound 6c] | 17.65 ± 0.09 | 18.72 ± 0.07 | 18.15 ± 0.03 | 55.15 ± 0.03 | 76.9 ± 3.01 | 39.34 ± 0.11
5 | O=C(OCCCCOC(=O)c1cc2c3ccccc3n(Cc3ccccc3F)c2cn1)c1cc2c3ccccc3n(Cc3ccccc3F)c2cn1 [Compound 6t] | 12.4 ± 0.59 | 9.01 ± 0.19 | 15.2 ± 0.32 | 18.26 ± 0.18 | 25.7 ± 1.21 | > 100
6 | COC(=O)c1cc2c3ccccc3n(Cc3ccccc3)c2cn1 [Compound 4A] | > 80 | > 80 | > 80 | > 80 | > 80 | 35.6 ± 0.3
7 | Cc1ccc(Cn2c3ccccc3c3cc(C(=O)OCCCCCCCCOC(=O)c4cc5c6ccccc6n(Cc6ccc(C)cc6)c5cn4)ncc32)cc1 [Compound 6q] | 23.65 ± 0.05 | 35.8 ± 0.82 | 45.2 ± 1.66 | 29.8 ± 0.93 | 43.1 ± 2.01 | 42.06 ± 0.09
8 | O=C(OCCCCCCOC(=O)c1cc2c3ccccc3n(Cc3ccccc3)c2cn1)c1cc2c3ccccc3n(Cc3ccccc3)c2cn1 [Compound 6d] | 40.03 ± 0.15 | 58.4 ± 0.72 | 32.36 ± 0.02 | 33.49 ± 0.01 | 75.5 ± 2.32 | 66.99 ± 0.1
9 | Cc1ccccc1Cn1c2ccccc2c2cc(C(=O)OCCCCOC(=O)c3cc4c5ccccc5n(Cc5ccccc5C)c4cn3)ncc21 [Compound 6h] | 8.09 ± 0.25 | 17.8 ± 0.93 | 45.8 ± 0.55 | 24.7 ± 0.5 | 76.7 ± 5 | 50.78 ± 0.09
10 | Cc1ccc(Cn2c3ccccc3c3cc(C(=O)OCCCCCCOC(=O)c4cc5c6ccccc6n(Cc6ccc(C)cc6)c5cn4)ncc32)cc1 [Compound 6p] | 19.28 ± 0.02 | 17.8 ± 0.22 | 15.7 ± 0.33 | 26.8 ± 0.51 | 55 ± 2.22 | 47.6 ± 0.02
11 | O=C(OCCCCCCCCOC(=O)c1cc2c3ccccc3n(Cc3ccccc3)c2cn1)c1cc2c3ccccc3n(Cc3ccccc3)c2cn1 [Compound 6e] | 50.3 ± 3.15 | 69.97 ± 0.13 | 54 ± 0.56 | 75.4 ± 0.89 | > 80 | > 100
12 | Cc1ccccc1Cn1c2ccccc2c2cc(C(=O)OCCCCCCCCOC(=O)c3cc4c5ccccc5n(Cc5ccccc5C)c4cn3)ncc21 [Compound 6k] | 37.4 ± 2.08 | 35 ± 2.09 | 36.7 ± 2.02 | 33.9 ± 0.52 | 44.9 ± 2.99 | 65.85 ± 0.07
13 | O=C(OCCCCCCCCOC(=O)c1cc2c3ccccc3n(Cc3ccccc3F)c2cn1)c1cc2c3ccccc3n(Cc3ccccc3F)c2cn1 [Compound 6w] | 16.5 ± 0.33 | 29.98 ± 0.07 | 31.3 ± 1.88 | 44.57 ± 0.02 | 76.3 ± 3.36 | 60.78 ± 0.16
14 | O=C(OCCCCOC(=O)c1cc2c3ccccc3n(Cc3ccccc3)c2cn1)c1cc2c3ccccc3n(Cc3ccccc3)c2cn1 [Compound 6b] | 12.26 ± 0.04 | 15.5 ± 0.32 | 18.2 ± 0.52 | 66.53 ± 0.31 | 70.9 ± 2.33 | 64.44 ± 0.09
15 | O=c1[nH]cc(F)c(=O)[nH]1 [Compound 5-FU, 5-fluorouracil, reference compound] | 15.39 ± 0.09 | > 80 | > 80 | 52.3 ± 2.06 | 57.7 ± 1.39 | 16.3 ± 0.3
16 | Cc1ccc(Cn2c3ccccc3c3cc(C(=O)OCCCOC(=O)c4cc5c6ccccc6n(Cc6ccc(C)cc6)c5cn4)ncc32)cc1 [Compound 6m] | 19.84 ± 0.04 | 18.4 ± 0.31 | 17.95 ± 0.02 | 33.32 ± 0.03 | 28.43 ± 0.28 | 49.05 ± 0.12
17 | Cc1ccccc1Cn1c2ccccc2c2cc(C(=O)OCCCOC(=O)c3cc4c5ccccc5n(Cc5ccccc5C)c4cn3)ncc21 [Compound 6g] | 18.3 ± 0.28 | 29.4 ± 1.03 | 17.99 ± 0.15 | 73.5 ± 8.06 | 53.1 ± 2.28 | 32.61 ± 0.1
18 | O=C(OCCCCCCOC(=O)c1cc2c3ccccc3n(Cc3ccccc3F)c2cn1)c1cc2c3ccccc3n(Cc3ccccc3F)c2cn1 [Compound 6v] | 7.95 ± 0.06 | 8.6 ± 0.13 | 22.9 ± 1.36 | 24.65 ± 0.06 | 42.4 ± 2.08 | 67.75 ± 0.11
19 | COC(=O)c1cc2c3ccccc3n(Cc3ccc(C)cc3)c2cn1 [Compound 4C] | 28.06 ± 0.13 | 47.98 ± 0.09 | 42.6 ± 0.98 | > 80 | > 80 | 35.35 ± 0.3
20 | O=C(OCCCOC(=O)c1cc2c3ccccc3n(Cc3ccccc3F)c2cn1)c1cc2c3ccccc3n(Cc3ccccc3F)c2cn1 [Compound 6s] | 6.12 ± 0.03 | 8.06 ± 0.08 | 13.77 ± 0.11 | 14.71 ± 0.08 | 25.2 ± 1.12 | 22.82 ± 0.02
21 | Cc1ccc(Cn2c3ccccc3c3cc(C(=O)OCCCCCOC(=O)c4cc5c6ccccc6n(Cc6ccc(C)cc6)c5cn4)ncc32)cc1 [Compound 6o] | 11.2 ± 0.61 | 17.18 ± 0.03 | 18.8 ± 0.46 | 36.62 ± 0.12 | 49.4 ± 1.65 | 31.28 ± 0.07
